The assay deals with T1, HIPK3 (YAK1) (Homo sapiens, UniProt Q9H422).
T1 construct: purchased Thermo Fisher Scientific (Life Technologies) SelectScreen
The assay is described as follows: SelectScreen Z'LYTE. The format is biochemical. In short, it runs like this: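 SelectScreen broad panel; activity (Z'LYTE, Adapta) plus binding formats. ATP: Km app for CSF1R Z'LYTE; 10 for CAMK1 Adapta. Readout = % per kinase.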

T1 sequence (Q9H422 whole entry): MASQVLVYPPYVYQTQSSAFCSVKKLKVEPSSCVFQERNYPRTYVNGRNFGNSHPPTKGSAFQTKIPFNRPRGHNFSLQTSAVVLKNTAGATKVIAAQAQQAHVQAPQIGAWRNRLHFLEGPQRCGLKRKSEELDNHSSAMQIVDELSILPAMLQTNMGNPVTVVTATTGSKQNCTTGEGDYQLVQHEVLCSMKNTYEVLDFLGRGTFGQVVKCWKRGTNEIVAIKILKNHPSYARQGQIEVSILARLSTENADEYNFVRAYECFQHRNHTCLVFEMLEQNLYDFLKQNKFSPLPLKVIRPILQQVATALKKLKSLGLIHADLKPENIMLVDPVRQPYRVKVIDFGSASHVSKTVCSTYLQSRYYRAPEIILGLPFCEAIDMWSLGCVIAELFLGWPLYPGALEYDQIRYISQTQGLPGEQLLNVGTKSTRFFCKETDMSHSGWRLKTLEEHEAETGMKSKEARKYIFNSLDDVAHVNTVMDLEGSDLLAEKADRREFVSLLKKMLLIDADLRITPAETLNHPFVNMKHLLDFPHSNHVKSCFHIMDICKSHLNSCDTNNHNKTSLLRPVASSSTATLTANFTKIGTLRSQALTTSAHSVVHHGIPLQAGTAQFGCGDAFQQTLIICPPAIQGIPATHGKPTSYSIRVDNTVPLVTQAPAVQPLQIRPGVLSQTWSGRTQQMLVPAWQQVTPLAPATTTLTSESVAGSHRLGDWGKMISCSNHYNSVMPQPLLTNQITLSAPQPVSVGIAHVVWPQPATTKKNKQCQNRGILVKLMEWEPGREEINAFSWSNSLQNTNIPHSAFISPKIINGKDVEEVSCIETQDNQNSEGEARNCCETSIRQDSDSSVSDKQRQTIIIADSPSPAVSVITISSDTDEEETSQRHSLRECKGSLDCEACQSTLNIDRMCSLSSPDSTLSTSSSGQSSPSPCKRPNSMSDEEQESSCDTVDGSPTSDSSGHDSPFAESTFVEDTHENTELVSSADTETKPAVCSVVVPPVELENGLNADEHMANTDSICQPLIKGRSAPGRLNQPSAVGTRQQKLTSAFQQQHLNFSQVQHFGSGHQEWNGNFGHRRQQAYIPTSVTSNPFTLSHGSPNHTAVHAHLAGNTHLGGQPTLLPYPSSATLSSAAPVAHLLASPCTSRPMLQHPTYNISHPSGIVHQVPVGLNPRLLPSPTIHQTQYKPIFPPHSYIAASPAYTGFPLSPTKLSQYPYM

As a reminder, the inhibition is the drop in the measured response relative to a control, in per cent. Low readings indicate a response near the control, high ones a response far below the control. Regarding `CN(C(=O)CN1CCOCC1)c1ccc2sc3c(-c4cccc5c(=O)cc(N6CC7CCC(C6)O7)oc45)cccc3c2c1` [NU5455], 1 µM produced 2.5% inhibition.

The values above are taken from paper PMC6934184, “Selective DNA-PKcs inhibition extends the therapeutic index of localized radiotherapy and chemotherapy” (The Journal of Clinical Investigation, 2019).
